Test results reported in ChEMBL document CHEMBL5241112, “Insights into the recent progress in the medicinal chemistry of pyranopyrimidine analogs” (RSC Med Chem, 2022).
Converted amounts (≈) assume the structure as drawn. Each block holds one compound with its values, some of them ahead of it.

Columns and labels:
[1] = biological target: Hydroxycarboxylic acid receptor 2 (Homo sapiens, UniProt Q8TDS4); test: Agonist activity at human HCA2 expressed in human Flp-In-293 cells assessed as inhibition of forskolin-stimulated cAMP accumulation at 50 uM incubated for 30 mins by Lance cAMP assay; assay type: cell-based; details: filed as agonist
Raoultella planticola = test: Antibacterial activity against Raoultella planticola MTCC 530 assessed as bacterial growth inhibition; assay type: functional; details: Klebsiella planticola
Bacillus subtilis [2] = test: Antibacterial activity against Bacillus subtilis MTCC 121 assessed as bacterial growth inhibition; assay type: functional
Micrococcus luteus = test: Antibacterial activity against Micrococcus luteus MTCC 2470 assessed as bacterial growth inhibition; assay type: functional
Staphylococcus aureus [3] = test: Antibacterial activity against Staphylococcus aureus MLS-16 MTCC 2940 assessed as bacterial growth inhibition; assay type: functional
Escherichia coli [4] = test: Antibacterial activity against Escherichia coli MTCC 739 assessed as bacterial growth inhibition; assay type: functional
Pseudomonas aeruginosa [5] = test: Antibacterial activity against Pseudomonas aeruginosa MTCC 2453 assessed as bacterial growth inhibition; assay type: functional
DNA topoisomerase II = DNA topoisomerase II (Homo sapiens, UniProt P11388+Q02880); test: Inhibition of DNA topoisomerase 2 (unknown origin); assay type: protein assay
DNA = test: Binding affinity to DNA (unknown origin) assessed as DNA intercalation; assay type: nucleic-acid assay
HepG2 = test: Anticancer activity against human HepG2 cells assessed as reduction in cell viability; assay type: functional, cell-based
HCT-116 = test: cells; details: Homo sapiens
MCF7 [6] = test: Anticancer activity against human MCF7 cells assessed as reduction in cell viability; assay type: functional, cell-based
Escherichia coli [7] = test: Antimicrobial activity against Escherichia coli assessed as diameter of inhibition zone by agar well diffusion method; assay type: functional
Bacillus subtilis [8] = test: Antimicrobial activity against Bacillus subtilis assessed as diameter of inhibition zone by agar well diffusion method; assay type: functional
Escherichia coli [9] = test: Antimicrobial activity against Escherichia coli assessed as diameter of inhibition zone at 1.2 mg/ml incubated for 12 hrs by agar disk diffusion method; assay type: functional; details: read-out: DIZ
Bacillus cereus [10] = test: Antimicrobial activity against Bacillus cereus assessed as diameter of inhibition zone at 5.0 mg/ml incubated for 12 hrs by agar disk diffusion method; assay type: functional; details: read-out: DIZ
Escherichia coli [11] = test: Antimicrobial activity against Escherichia coli assessed as diameter of inhibition zone at 2.5 mg/ml incubated for 12 hrs by agar disk diffusion method; assay type: functional; details: read-out: DIZ
Staphylococcus aureus [12] = test: Antimicrobial activity against Staphylococcus aureus assessed as diameter of inhibition zone at 5.0 mg/ml incubated for 12 hrs by agar disk diffusion method; assay type: functional; details: read-out: DIZ
Bacillus cereus [13] = test: Antimicrobial activity against Bacillus cereus assessed as diameter of inhibition zone at 2.5 mg/ml incubated for 12 hrs by agar disk diffusion method; assay type: functional; details: read-out: DIZ
Bacillus cereus [14] = test: Antimicrobial activity against Bacillus cereus assessed as diameter of inhibition zone at 1.2 mg/ml incubated for 12 hrs by agar disk diffusion method; assay type: functional; details: read-out: DIZ
Pseudomonas aeruginosa [15] = test: Antimicrobial activity against Pseudomonas aeruginosa assessed as diameter of inhibition zone at 5.0 mg/ml incubated for 12 hrs by agar disk diffusion method; assay type: functional; details: read-out: DIZ
Escherichia coli [16] = test: Antimicrobial activity against Escherichia coli assessed as diameter of inhibition zone at 5.0 mg/ml incubated for 12 hrs by agar disk diffusion method; assay type: functional; details: read-out: DIZ
Staphylococcus aureus [17] = test: Antimicrobial activity against Staphylococcus aureus assessed as diameter of inhibition zone at 1.2 mg/ml incubated for 12 hrs by agar disk diffusion method; assay type: functional; details: read-out: DIZ
Pseudomonas aeruginosa [18] = test: Antimicrobial activity against Pseudomonas aeruginosa assessed as diameter of inhibition zone at 1.2 mg/ml incubated for 12 hrs by agar disk diffusion method; assay type: functional; details: read-out: DIZ
Staphylococcus aureus [19] = test: Antimicrobial activity against Staphylococcus aureus assessed as diameter of inhibition zone at 2.5 mg/ml incubated for 12 hrs by agar disk diffusion method; assay type: functional; details: read-out: DIZ
Pseudomonas aeruginosa [20] = test: Antimicrobial activity against Pseudomonas aeruginosa assessed as diameter of inhibition zone at 2.5 mg/ml incubated for 12 hrs by agar disk diffusion method; assay type: functional; details: read-out: DIZ
[21] = Antioxidant activity assessed as DPPH radical scavenging activity at 25 ug/ml incubated for 30 mins by spectrophotometric analysis; assay type: functional; details: dose 25.0 µg/ml
OVCAR-3 [22] = test: Anticancer activity against human OVCAR-3 cells assessed as tumor growth inhibition by sulforhodamine B assay; assay type: functional
PC-3 [23] = test: Anticancer activity against human PC-3 cells assessed as tumor growth inhibition by sulforhodamine B assay; assay type: functional
OVCAR-3 [24] = test: Anticancer activity against human OVCAR-3 cells assessed as cell growth inhibition by sulforhodamine B assay; assay type: functional
PC-3 [25] = test: Anticancer activity against human PC-3 cells assessed as lethality by sulforhodamine B assay; assay type: functional; details: read-out: LC50 (the source's name)
MDA-MB-435 [26] = test: Anticancer activity against human MDA-MB-435 cells assessed as lethality by sulforhodamine B assay; assay type: functional; details: read-out: LC50 (the source's name)
PC-3 [27] = test: Anticancer activity against human PC-3 cells assessed as cell growth inhibition by sulforhodamine B assay; assay type: functional
MDA-MB-435 [28] = test: Anticancer activity against human MDA-MB-435 cells assessed as cell growth inhibition by sulforhodamine B assay; assay type: functional
OVCAR-3 [29] = test: Anticancer activity against human OVCAR-3 cells assessed as lethality by sulforhodamine B assay; assay type: functional; details: read-out: LC50 (the source's name)
MDA-MB-435 [30] = test: Anticancer activity against human MDA-MB-435 cells assessed as tumor growth inhibition by sulforhodamine B assay; assay type: functional
MCF7 [31] = test: cells; details: Homo sapiens, MCF7, 48 h
HeLa = test: Anticancer activity against human HeLa cells assessed as reduction in cell viability incubated for 48 hrs by MTT assay; assay type: functional, cell-based

Chain of Hydroxycarboxylic acid receptor 2 (Q8TDS4 whole entry): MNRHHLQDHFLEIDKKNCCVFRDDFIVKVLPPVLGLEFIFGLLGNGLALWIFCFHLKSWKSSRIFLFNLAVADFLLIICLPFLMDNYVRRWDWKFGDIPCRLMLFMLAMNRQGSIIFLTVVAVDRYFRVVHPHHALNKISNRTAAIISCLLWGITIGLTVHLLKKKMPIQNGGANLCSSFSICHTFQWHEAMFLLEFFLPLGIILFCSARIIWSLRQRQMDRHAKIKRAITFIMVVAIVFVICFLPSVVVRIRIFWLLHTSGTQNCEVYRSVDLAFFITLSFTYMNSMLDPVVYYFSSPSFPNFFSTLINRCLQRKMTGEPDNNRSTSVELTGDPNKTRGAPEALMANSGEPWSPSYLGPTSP

Emax [1]: 85%
SMILES: O=C(CSc1nc(=O)c2c(CCCCCl)cc(=O)oc2[nH]1)Oc1ccccc1

Emax [1]: 87%
SMILES: NC(=O)CSc1nc(=O)c2c(CCCCCl)cc(=O)oc2[nH]1

SMILES: O=c1oc2ccccc2c2c1C(c1ccccc1)c1c(Nc3ccc([N+](=O)[O-])cc3)ncnc1O2 (stereo not drawn)
MIC (Raoultella planticola): 31.2 µg/mL (≈ 67.2 µM)
MIC (Bacillus subtilis [2]): ≤ 125 µg/mL
MIC (Micrococcus luteus): 31.2 µg/mL (≈ 67.2 µM)
MIC (Staphylococcus aureus [3]): ≤ 125 µg/mL
MIC (Escherichia coli [4]): 31.2 µg/mL (≈ 67.2 µM)
MIC (Pseudomonas aeruginosa [5]): ≤ 125 µg/mL

IC50 (DNA topoisomerase II): 0.776 µM
IC50 (DNA): 29.9 µM
IC50 (HepG2): 2.09 µM
IC50 (HCT-116): 2.61 µM
IC50 (MCF7 [6]): 2.43 µM
SMILES: COc1ccc(C2c3c([nH]c(=O)[nH]c3=O)Oc3ncn(-c4ccccc4O)c(=N)c32)cc1 (stereo not drawn)

SMILES: C[C@H]1COc2c(N3CCN(C)CC3)c(F)cc3c(=O)c(C(=O)O)cn1c23.C[C@H]1COc2c(N3CCN(C)CC3)c(F)cc3c(=O)c(C(=O)O)cn1c23.O [LEVOFLOXACIN]
diameter of the inhibition zone (DIZ) (Escherichia coli [7]): 29.35 mm
diameter of the inhibition zone (DIZ) (Bacillus subtilis [8]): 26 mm

SMILES: COc1ccc(C2C(C#N)=C(N)Oc3[nH]c(=S)[nH]c(=O)c32)cc1 (stereo not drawn)
zone of inhibition at 1200 µg/mL (Escherichia coli [9]): 14 mm
zone of inhibition at 5000 µg/mL (Bacillus cereus [10]): 22 mm
zone of inhibition at 2500 µg/mL (Escherichia coli [11]): 20 mm
zone of inhibition at 5000 µg/mL (Staphylococcus aureus [12]): 20 mm
zone of inhibition at 2500 µg/mL (Bacillus cereus [13]): 18 mm
zone of inhibition at 1200 µg/mL (Bacillus cereus [14]): 14 mm
zone of inhibition at 5000 µg/mL (Pseudomonas aeruginosa [15]): 30 mm
zone of inhibition at 5000 µg/mL (Escherichia coli [16]): 30 mm
zone of inhibition at 1200 µg/mL (Staphylococcus aureus [17]): 12 mm
zone of inhibition at 1200 µg/mL (Pseudomonas aeruginosa [18]): 12 mm
zone of inhibition at 2500 µg/mL (Staphylococcus aureus [19]): 16 mm
zone of inhibition at 2500 µg/mL (Pseudomonas aeruginosa [20]): 17 mm

SMILES: NC(=O)C1=C(N)Oc2[nH]nc(-c3ccccc3)c2C1c1coc2ccccc2c1=O (stereo not drawn)
Activity [21]: 62.5%

IC50 (DNA topoisomerase II): 0.791 µM
IC50 (DNA): 27.1 µM
IC50 (HepG2): 2.09 µM
IC50 (HCT-116): 2.61 µM
IC50 (MCF7 [6]): 2.43 µM
SMILES: COc1ccc(C2c3c([nH]c(=O)[nH]c3=O)Oc3ncn(C(=S)Nc4ccccc4)c(=N)c32)cc1 (stereo not drawn)

SMILES: N#CC1=C(N)Oc2[nH]c(=O)[nH]c(=O)c2C1c1ccco1 (stereo not drawn)
TGI (OVCAR-3 [22]): >100%
TGI (PC-3 [23]): 98.8%
GI50 (OVCAR-3 [24]): > 100 µM
CC50 (PC-3 [25]): > 100 µM
CC50 (MDA-MB-435 [26]): > 100 µM
GI50 (PC-3 [27]): > 100 µM
GI50 (MDA-MB-435 [28]): > 100 µM
CC50 (OVCAR-3 [29]): > 100 µM
TGI (MDA-MB-435 [30]): >100%

SMILES: COc1cccc2c1C(=O)c1c(O)c3c(c(O)c1C2=O)C[C@@](O)(C(=O)CO)C[C@@H]3O[C@H]1C[C@H](N)[C@H](O)[C@H](C)O1.Cl [DOXORUBICIN HYDROCHLORIDE]
TGI (OVCAR-3 [22]): 56.3%
TGI (PC-3 [23]): 76.7%
GI50 (OVCAR-3 [24]): < 0.1 µM
CC50 (PC-3 [25]): > 100 µM
IC50 (MCF7 [31]): < 10 µM
CC50 (MDA-MB-435 [26]): 91.8 µM
GI50 (PC-3 [27]): < 0.1 µM
GI50 (MDA-MB-435 [28]): < 0.1 µM
CC50 (OVCAR-3 [29]): > 100 µM
TGI (MDA-MB-435 [30]): 5.5%
IC50 (HeLa): < 10 µM
